Assay results as given in EPA's ToxRefDB 2.

Tests used:
rat [1] = conditions: Multigenerational reproductive toxicity study; other; Oral; Feed; dose end: 3 generation; group: parental; systemic / in life observation / body weight / body weight
rat [2] = conditions: Prenatal developmental toxicity study, sprague dawley, Oral, Gavage/Intubation, dose end: 15 GD
mouse [3] = conditions: Carcinogenicity; cd1; Oral; Feed; dose end: 18 month; group: systemic; systemic / organ weight / liver / absolute + systemic / organ weight / liver / relative to body weight + systemic / pathology microscopic / …
rat [4] = conditions: Multigenerational reproductive toxicity study, other, Oral, Feed, dose end: 2 generation
mouse [5] = conditions: Carcinogenicity; cd1; Oral; [Not Specified]; dose end: 79 week; group: systemic; systemic / hematology / erythrocyte (rbc) count differential / erythrocyte (rbc) + systemic / hematology / hematocrit (hct) / hematocrit (…
dog [6] = conditions: Chronic toxicity; beagle; Oral; Capsule; dose end: 52 week; group: systemic; systemic / clinical chemistry / alkaline phosphatase (alp/alk) / alkaline phosphatase (alp/alk) + systemic / hematology / blood clotting / …
rat [7] = conditions: Subchronic oral toxicity in rodents, sprague dawley, Feed, dose end: 90 day, group: systemic
rat [8] = conditions: Subchronic oral toxicity in rodents, other, Feed, dose end: 13 week
rat [9] = conditions: Combined chronic toxicity/carcinogenicity, sprague dawley, Oral, Feed, dose end: 106 week, group: systemic
dog [10] = conditions: Subchronic oral toxicity in nonrodent, beagle, Capsule, dose end: 13 week, group: systemic, systemic / hematology / blood clotting / blood clotting - activated partial thromboplastin time
rat [11] = conditions: Fertility (Segment I), Oral, Gavage/Intubation, dose end: 1 generation
rabbit [12] = conditions: Sub-acute repeat dose toxicity, Oral, Gavage/Intubation, dose end: 13 day
rat [13] = conditions: Prenatal developmental toxicity study; sprague dawley; Oral; Gavage/Intubation; dose end: 18 GD; group: maternal; systemic / in life observation / body weight / body weight gain + systemic / in life observation / food consumption / food consumption
rabbit [14] = conditions: Prenatal developmental toxicity study; Oral; Gavage/Intubation; dose end: 19 GD; group: maternal; reproductive / reproductive performance / aborted / aborted + systemic / in life observation / food consumption / food consumption + …
rat [15] = conditions: Fertility (Segment I), Oral, Gavage/Intubation, dose end: 1 generation, group: parental
[16] = group: developmental, developmental / developmental malformation / bone / delayed ossification
[17] = group: maternal, systemic / in life observation / body weight / body weight gain
[18] = group: offspring, developmental / offspring survival late / viability index / viability index
[19] = group: offspring, developmental / offspring survival late / viability index / viability index + systemic / in life observation / body weight / offspring (pup…
[20] = group: parental, systemic / organ weight / kidney / absolute
[21] = group: parental, systemic / organ weight / kidney / absolute + systemic / organ weight / kidney / relative to body weight + systemic / organ weight / liver…
[22] = systemic / urinalysis / sediment microscopic / epithelial cells
[23] = systemic / urinalysis / sediment microscopic / epithelial cells + systemic / organ weight / liver / relative to body weight
[24] = group: cholinesterase, cholinesterase / cholinesterase / cholinesterase / cholinesterase (che)
[25] = group: systemic, systemic / organ weight / liver / relative to body weight + systemic / clinical chemistry / [other] / [other] + systemic / in life …
[26] = systemic / organ weight / spleen / absolute + systemic / organ weight / liver / relative to body weight
[27] = group: maternal, reproductive / reproductive performance / estrous cycle / abnormal
[28] = group: parental, systemic / in life observation / food consumption / food consumption
[29] = group: maternal, reproductive / reproductive performance / aborted / aborted + reproductive / reproductive performance / resorptions / resorptions
[30] = group: systemic, systemic / in life observation / body weight / body weight gain + systemic / in life observation / food consumption / food consumption
[31] = systemic / in life observation / body weight / body weight + systemic / in life observation / food consumption / food consumption + systemic…

**Q.** `O=C(O)Cc1c(Cl)ccc(Cl)c1Cl` [Chlorfenac] was tested. Which LEL (rat [1]) did it give?
**A.** 125 mg/kg/day

**Q.** What about the LOAEL (rat [1]) of the same compound?
**A.** > 125 mg/kg/day

**Q.** What about the NEL (rat [1]) of the same compound?
**A.** 25 mg/kg/day

**Q.** And the NOAEL (rat [1])?
**A.** ≥ 125 mg/kg/day

**Q.** And the LEL (rat [2]; [16])?
**A.** 300 mg/kg/day

**Q.** And the LOAEL (rat [2]; [16])?
**A.** > 300 mg/kg/day

**Q.** What about the NEL (rat [2]; [16]) of the same compound?
**A.** 60 mg/kg/day

**Q.** And the NOAEL (rat [2]; [16])?
**A.** ≥ 300 mg/kg/day

**Q.** What about the LEL (rat [2]; [17]) of the same compound?
**A.** 300 mg/kg/day

**Q.** What about the LOAEL (rat [2]; [17]) of the same compound?
**A.** > 300 mg/kg/day

**Q.** What about the NEL (rat [2]; [17]) of the same compound?
**A.** 60 mg/kg/day

**Q.** What about the NOAEL (rat [2]; [17]) of the same compound?
**A.** ≥ 300 mg/kg/day

**Q.** What about the LEL (mouse [3]) of the same compound?
**A.** 600 mg/kg/day

**Q.** And the LOAEL (mouse [3])?
**A.** > 600 mg/kg/day

**Q.** What about the NEL (mouse [3]) of the same compound?
**A.** 300 mg/kg/day

**Q.** And the NOAEL (mouse [3])?
**A.** ≥ 600 mg/kg/day

**Q.** Which LEL (rat [4]; [18]) does the source give for `CCCCCOC(=O)COc1cc(N2C(=O)C3=C(CCCC3)C2=O)c(F)cc1Cl` [Flumiclorac-pentyl] here?
**A.** 829 mg/kg/day

**Q.** What about the LOAEL (rat [4]; [18]) of the same compound?
**A.** 829 mg/kg/day

**Q.** And the NEL (rat [4]; [19])?
**A.** 18 mg/kg/day

**Q.** And the NOAEL (rat [4]; [19])?
**A.** 18 mg/kg/day

**Q.** And the LEL (rat [4]; [20])?
**A.** 18 mg/kg/day

**Q.** What about the NEL (rat [4]; [20]) of the same compound?
**A.** < 18 mg/kg/day

**Q.** What about the LOAEL (rat [4]; [21]) of the same compound?
**A.** 829 mg/kg/day

**Q.** What about the NOAEL (rat [4]; [21]) of the same compound?
**A.** 18 mg/kg/day

**Q.** What about the LEL (mouse [5]) of the same compound?
**A.** 308 mg/kg/day

**Q.** What about the LOAEL (mouse [5]) of the same compound?
**A.** 308 mg/kg/day

**Q.** What about the NEL (mouse [5]) of the same compound?
**A.** 31.5 mg/kg/day

**Q.** What about the NOAEL (mouse [5]) of the same compound?
**A.** 31.5 mg/kg/day

**Q.** What about the LEL (dog [6]) of the same compound?
**A.** 1000 mg/kg/day

**Q.** And the LOAEL (dog [6])?
**A.** 1000 mg/kg/day

**Q.** What about the NEL (dog [6]) of the same compound?
**A.** 100 mg/kg/day

**Q.** And the NOAEL (dog [6])?
**A.** 100 mg/kg/day

**Q.** And the LEL (rat [7]; [22])?
**A.** 659 mg/kg/day

**Q.** And the LOAEL (rat [7]; [22])?
**A.** 659 mg/kg/day

**Q.** What about the NEL (rat [7]; [23]) of the same compound?
**A.** 64.9 mg/kg/day

**Q.** And the NOAEL (rat [7]; [23])?
**A.** 64.9 mg/kg/day

**Q.** And the LEL (rat [8]; [24])?
**A.** 73.8 mg/kg/day

**Q.** What about the LOAEL (rat [8]; [24]) of the same compound?
**A.** 73.8 mg/kg/day

**Q.** What about the NEL (rat [8]; [24]) of the same compound?
**A.** 7.4 mg/kg/day

**Q.** What about the NOAEL (rat [8]; [24]) of the same compound?
**A.** 7.4 mg/kg/day

**Q.** What about the LEL (rat [8]; group: systemic, systemic / clinical chemistry / [other] / [other] + systemic / in life observation / food consumption / food efficiency + systemic / in life…) of the same compound?
**A.** 664 mg/kg/day

**Q.** What about the LOAEL (rat [8]; group: systemic, systemic / organ weight / liver / relative to body weight) of the same compound?
**A.** 1360 mg/kg/day

**Q.** What about the NEL (rat [8]; [25]) of the same compound?
**A.** 67 mg/kg/day

**Q.** What about the NOAEL (rat [8]; [25]) of the same compound?
**A.** 664 mg/kg/day

**Q.** What about the LOAEL (rat [9]; systemic / organ weight / liver / relative to body weight + systemic / organ weight / kidney / absolute + systemic / organ weight / liver / …) of the same compound?
**A.** 360 mg/kg/day

**Q.** What about the LEL (rat [9]; [26]) of the same compound?
**A.** 3.5 mg/kg/day

**Q.** And the NEL (rat [9]; [26])?
**A.** < 3.5 mg/kg/day

**Q.** And the NOAEL (rat [9]; systemic / organ weight / spleen / absolute + systemic / organ weight / liver / relative to body weight + systemic / organ weight / kidney…)?
**A.** 35.4 mg/kg/day

**Q.** What about the LEL (dog [10]) of the same compound?
**A.** 100 mg/kg/day

**Q.** And the LOAEL (dog [10])?
**A.** 100 mg/kg/day

**Q.** What about the NEL (dog [10]) of the same compound?
**A.** 10 mg/kg/day

**Q.** What about the NOAEL (dog [10]) of the same compound?
**A.** 10 mg/kg/day

**Q.** Which results are given for `CNCc1ccc(NC(=O)c2c[nH]c3c2C(=O)CCC3)cc1`?
**A.** LEL (rat [11]; [27]): 250 mg/kg/day; LOAEL (rat [11]; [27]): > 1000 mg/kg/day; NEL (rat [11]; [27]): 25 mg/kg/day; NOAEL (rat [11]; [27]): ≥ 1000 mg/kg/day; LEL (rat [11]; [28]): 1000 mg/kg/day; LOAEL (rat [11]; [28]): > 1000 mg/kg/day; NEL (rat [11]; [28]): 250 mg/kg/day; NOAEL (rat [11]; [28]): ≥ 1000 mg/kg/day; LEL (rabbit [12]; [29]): 300 mg/kg/day; LOAEL (rabbit [12]; [29]): > 300 mg/kg/day; NEL (rabbit [12]; [29]): 150 mg/kg/day; NOAEL (rabbit [12]; [29]): ≥ 300 mg/kg/day; LEL (rabbit [12]; [30]): 300 mg/kg/day; LOAEL (rabbit [12]; [30]): > 300 mg/kg/day; NEL (rabbit [12]; [30]): 150 mg/kg/day; NOAEL (rabbit [12]; [30]): ≥ 300 mg/kg/day; LEL (rat [13]): 250 mg/kg/day; LOAEL (rat [13]): > 1000 mg/kg/day; NEL (rat [13]): 25 mg/kg/day; NOAEL (rat [13]): ≥ 1000 mg/kg/day; LEL (rabbit [14]): 300 mg/kg/day; LOAEL (rabbit [14]): > 300 mg/kg/day; NEL (rabbit [14]): 100 mg/kg/day; NOAEL (rabbit [14]): ≥ 300 mg/kg/day; LOAEL (rat [15]; [31]): > 1000 mg/kg/day; NEL (rat [15]; [31]): 25 mg/kg/day; NOAEL (rat [15]; [31]): ≥ 1000 mg/kg/day; LEL (rat [15]; systemic / in life observation / body weight / body weight + systemic / pathology gross / intestine large / dilatation): 250 mg/kg/day
